What was measured:
[1] = Particle size distribution, Malvern Hydro2000S (A); format: physicochemical; settings: crystals of Example 1, seeded crystallisation from acetone, no milling
Procedure: The particle size distribution of olmesartan medoxomil (I) is measured utilizing: Instrument model: Malvern; Dispersion unit: Hydro2000S (A); Particle refraction index of sample: 1.427; Absorption: 0.1; Dispersant refraction index: 1.468 and Size range: 0.020-2000 μm.

[2] = Minimum ignition energy and powder resistivity of the powder; format: physicochemical; settings: observed by the present inventors; process safety for milling

particle size distribution d10 [1]: 0.984 μm | particle size distribution d50 [1]: 8.484 μm | particle size distribution d90 [1]: 18.756 μm
SMILES: CCCc1nc(C(C)(C)O)c(C(=O)OCc2oc(=O)oc2C)n1Cc1ccc(-c2ccccc2-c2nnn[nH]2)cc1 [olmesartan medoxomil, 4-(1-hydroxy-1-methylethyl)-2-propyl-1-[[2′-(1H-tetrazol-5-yl) [1, 1′-biphenyl]-4-yl]methyl]-1H-imidazole-5-carboxylic acid (5-methyl-2-oxo-1,3-dioxol-4-yl)methyl ester]
minimum ignition energy [2]: less than 3 mJ | powder resistivity [2]: very high

— patent US20150225380A1, “Novel Method to Obtain Olmesartan Medoxomil With Reduced Particle Size” (LUPIN LIMITED, priority 2012, published 2015)
